Columns and labels:
[1] = target: T1, BACE2 (Rattus norvegicus, UniProt Q6IE75); test: Assay for BACE inhibition by measuring cellular TMEM27 cleavage; format: cell-based; conditions: INS-TMEM27 cells (INS1e-derived); shed TMEM27 by ELISA; read-out: BACE2 cell act. IC50
T1 construct: endogenous cellular BACE2 in the Ins1e rat cell line; endogenous in cells; host or cells: INS-TMEM27 (INS1e-derived rat cell line with TetOn-inducible full-length hTMEM27)
T1 sequence (Q6IE75 63-514): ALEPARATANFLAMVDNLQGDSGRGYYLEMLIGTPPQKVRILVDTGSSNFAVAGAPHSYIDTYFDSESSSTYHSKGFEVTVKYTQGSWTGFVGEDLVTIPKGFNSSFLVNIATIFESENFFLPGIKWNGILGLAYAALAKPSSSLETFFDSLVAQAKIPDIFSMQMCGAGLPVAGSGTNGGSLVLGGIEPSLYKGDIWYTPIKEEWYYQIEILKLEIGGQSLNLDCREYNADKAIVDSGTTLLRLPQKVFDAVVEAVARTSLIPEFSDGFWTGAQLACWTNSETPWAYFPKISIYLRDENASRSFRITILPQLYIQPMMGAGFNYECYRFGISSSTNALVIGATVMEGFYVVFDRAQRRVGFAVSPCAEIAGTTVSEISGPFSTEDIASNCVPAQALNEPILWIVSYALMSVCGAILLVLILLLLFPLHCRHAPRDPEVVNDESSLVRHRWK
In short: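 Ins1e-derived INS-TMEM27 rat cells with doxycycline-inducible full-length human TMEM27; inhibitor added 2 h before doxycycline (500 ng/ml final), then 46 h at 37 °C. Shed TMEM27 in supernatant quantified by sandwich ELISA with anti-human-TMEM27 antibodies; EC50 from curve fit across inhibitor concentrations.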

[2] = in vivo effect; conditions: po; % of control @ 30 mg/kg p.o.
[3] = target: T2, recombinant human cathepsin E (Homo sapiens, UniProt P14091); test: Cathepsin E fluorescent substrate kinetic assay; format: biochemical; conditions: pH 4.5
T2 construct: purchased R&D Systems
T2 sequence (P14091 54-396): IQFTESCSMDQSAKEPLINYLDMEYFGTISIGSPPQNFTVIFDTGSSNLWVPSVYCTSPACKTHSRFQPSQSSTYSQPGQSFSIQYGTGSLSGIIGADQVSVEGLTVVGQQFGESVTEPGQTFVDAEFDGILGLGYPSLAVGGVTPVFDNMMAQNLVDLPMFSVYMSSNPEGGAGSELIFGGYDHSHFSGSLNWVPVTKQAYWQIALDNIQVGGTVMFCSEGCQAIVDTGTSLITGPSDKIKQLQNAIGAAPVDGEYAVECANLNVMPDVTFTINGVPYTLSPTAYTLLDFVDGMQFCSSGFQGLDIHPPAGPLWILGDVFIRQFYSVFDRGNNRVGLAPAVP
Source text: (§1) Cathepsin D and Cathepsin E Fluorescent Substrate Kinetic Assays
The MR121 fluorescence assays described below are based on the fact that MR121 forms a non-fluorescent ground state complex with tryptophan. In solution this formation occurs at millimolar concentrations of tryptophan. The mechanism can be used to design a generic biochemical assay for proteases. […] In absence of protease activity, the substrates remain intact and the MR121 fluorescence is reduced by the high local Trp-concentration. If the substrates are cleaved by the enzymes the MR121 fluorescence is recovered.
The fluorescent substrate cathepsin D and cathepsin E kinetic assays were performed at room temperature in 384-well microtiter plates (black with clear flat bottom, non binding surface plates from Corning) in a final volume of 51 μl. The test compounds were serially diluted in DMSO (15 concentrations, 1/3 dilution steps) and 1 μl of diluted compounds were mixed for 10 min with 40 μl of cathepsin D (from human liver, Calbiochem) diluted in assay buffer (100 mM sodium acetate, 0.05% BSA, pH 5.5; final concentration: 200 nM) or with 40 μl of recombinant human cathepsin E (R&D Systems) diluted in assay buffer (100 mM sodium acetate, 0.05% BSA, pH 4.5; final concentration: 0.01 nM). […] The enzymatic reaction was followed in a plate: vision reader (Perkin Elmer) (excitation wavelength: 630 nm; emission: 695 nm) for at least 30 minutes in a kinetic measurement detecting an increase of MR121 fluorescence during the reaction time. The slope in the linear range of the kinetic was calculated and the IC50 of the test compounds were determined using a four parameter equation for curve fitting.

[4] = target: T3, cathepsin D (from human liver) (Homo sapiens, UniProt P07339); test: Cathepsin D fluorescent substrate kinetic assay; format: biochemical; conditions: pH 5.5
T3 construct: cathepsin D (from human liver, Calbiochem); purchased Calbiochem; host or cells: human liver
Source text: as §1
The MR121 fluorescence assays described below are based on the fact that MR121 forms a non-fluorescent ground state complex with tryptophan. In solution this formation occurs at millimolar concentrations of tryptophan. The mechanism can be used to design a generic biochemical assay for proteases. A substrate peptide is labeled at the N-terminus with tryptophan and at the C-terminus with the fluorophore MR121 (for cathepsin D the 10 amino acid peptide […]-MR121 was used; for cathepsin E, MR121-[…] was used). In absence of protease activity, the substrates remain intact and the MR121 fluorescence is reduced by the high local Trp-concentration. If the substrates are cleaved by the enzymes the MR121 fluorescence is recovered.
The fluorescent substrate cathepsin D and cathepsin E kinetic assays were performed at room temperature in 384-well microtiter plates (black with clear flat bottom, non binding surface plates from Corning) in a final volume of 51 μl. The test compounds were serially diluted in DMSO (15 concentrations, 1/3 dilution steps) and 1 μl of diluted compounds were mixed for 10 min with 40 μl of cathepsin D (from human liver, Calbiochem) diluted in assay buffer (100 mM sodium acetate, 0.05% BSA, pH 5.5; final concentration: 200 nM) or with 40 μl of recombinant human cathepsin E (R&D Systems) diluted in assay buffer (100 mM sodium acetate, 0.05% BSA, pH 4.5; final concentration: 0.01 nM). After addition of 10 μl of the cathepsin D substrate […]-MR121 diluted in cathepsin D assay buffer (final concentration: 300 nM) or 10 µl of the cathepsin E substrate MR121-[…] diluted in cathepsin E assay buffer (final concentration: 300 nM), the plates were strongly shaken for 2 minutes. The enzymatic reaction was followed in a plate: vision reader (Perkin Elmer) (excitation wavelength: 630 nm; emission: 695 nm) for at least 30 minutes in a kinetic measurement detecting an increase of MR121 fluorescence during the reaction time. The slope in the linear range of the kinetic was calculated and the IC50 of the test compounds were determined using a four parameter equation for curve fitting.

[5] = target: T4, BACE1 (Homo sapiens, UniProt P56817); test: Cellular Aβ-lowering assay (Aβ40 ELISA); format: cell-based; conditions: HEK293 cells stably expressing human APP695; Aβ40 in culture supernatant; read-out: BACE1 cell act. Aβ40 IC50
T4 construct: Human HEK293 cells which are stably transfected with a vector expressing a cDNA of the human APP wt gene (APP695); endogenous in cells; host or cells: HEK293 stably transfected with human APP695 wt
In short: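 Aβ40 in supernatant measured by sandwich ELISA (TMB, 450 nm) and quantified against a pure Aβ peptide standard curve.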

T4 sequence (P56817 46-501): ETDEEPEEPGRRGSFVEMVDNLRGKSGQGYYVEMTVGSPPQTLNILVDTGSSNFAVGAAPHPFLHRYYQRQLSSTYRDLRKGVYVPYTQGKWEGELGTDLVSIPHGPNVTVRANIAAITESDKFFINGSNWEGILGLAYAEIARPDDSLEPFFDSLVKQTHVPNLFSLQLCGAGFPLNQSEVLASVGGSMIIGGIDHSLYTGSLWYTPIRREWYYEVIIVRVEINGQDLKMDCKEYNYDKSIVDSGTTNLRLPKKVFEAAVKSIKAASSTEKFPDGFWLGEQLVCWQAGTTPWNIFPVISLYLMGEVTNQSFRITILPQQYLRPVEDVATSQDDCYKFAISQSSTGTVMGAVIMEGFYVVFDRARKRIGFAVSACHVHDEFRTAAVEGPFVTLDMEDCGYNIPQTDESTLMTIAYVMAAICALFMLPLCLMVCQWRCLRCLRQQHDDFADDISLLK
T3 sequence (P07339 65-412): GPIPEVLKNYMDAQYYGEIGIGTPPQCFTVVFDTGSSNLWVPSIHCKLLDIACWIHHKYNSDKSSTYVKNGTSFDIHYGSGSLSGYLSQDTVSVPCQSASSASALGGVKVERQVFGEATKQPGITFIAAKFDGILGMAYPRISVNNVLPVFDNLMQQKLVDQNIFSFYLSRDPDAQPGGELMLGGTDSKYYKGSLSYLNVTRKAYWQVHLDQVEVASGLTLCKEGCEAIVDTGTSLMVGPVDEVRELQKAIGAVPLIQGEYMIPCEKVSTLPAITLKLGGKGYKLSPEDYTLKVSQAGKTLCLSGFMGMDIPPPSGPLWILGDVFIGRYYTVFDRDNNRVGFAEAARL

SMILES	IC50 [1]	response vs control in vivo at 30 mg/kg [2]	IC50 [3]	IC50 [4]	IC50 [5]
C[C@]1(c2cc(NC(=O)c3ccc(C#N)cn3)ccc2F)N=C(N)OCC1(F)F [Example 11, 5-Cyano-pyridine-2-carboxylic acid [3-((R)-2-amino-5,5-difluoro-4-methyl-5,6-dihydro-4H-[1,3]oxazin-4-yl)-4-fluoro-phenyl]-amide]	0.074 µM	< 50%	73 µM	69 µM	–
Cc1cn[nH]c1C(=O)Nc1ccc(F)c([C@@]2(C)N=C(N)OCC2(F)F)c1 [Example 66, 4-Methyl-2H-pyrazole-3-carboxylic acid [3-((R)-2-amino-5,5-difluoro-4-methyl-5,6-dihydro-4H-[1,3]oxazin-4-yl)-4-fluoro-phenyl]-amide]	0.465 µM	–	–	–	0.622 µM
C[C@]1(c2cccc(NC(=O)c3ccc(Cl)cn3)c2)N=C(N)OCC1(F)F [Example 52, 5-Chloro-pyridine-2-carboxylic acid [3-((R)-2-amino-5,5-difluoro-4-methyl-5,6-dihydro-4H-[1,3]oxazin-4-yl)-phenyl]-amide]	0.035 µM	–	–	–	0.009 µM
C[C@]1(c2cc(NC(=O)c3ncc(Cl)cn3)ccc2F)N=C(N)OCC1(F)F [Example 12, 5-Chloro-pyrimidine-2-carboxylic acid [3-((R)-2-amino-5,5-difluoro-4-methyl-5,6-dihydro-4H-[1,3]oxazin-4-yl)-4-fluoro-phenyl]-amide]	0.069 µM	–	–	–	0.023 µM
CC1(C)OC(N)=N[C@](C)(c2cc(NC(=O)c3ccc(C(F)(F)F)cn3)ccc2F)C1(F)F [Example 25, 5-Trifluoromethyl-pyridine-2-carboxylic acid [3-((R)-2-amino-5,5-difluoro-4,6,6-trimethyl-5,6-dihydro-4H-[1,3]oxazin-4-yl)-4-fluoro-phenyl]-amide]	2.25 µM	–	–	–	0.025 µM
C[C@]1(c2cc(NC(=O)c3ncccc3Cl)ccc2F)N=C(N)OCC1(F)F [Example 3, 3-Chloro-pyridine-2-carboxylic acid [3-((R)-2-amino-5,5-difluoro-4-methyl-5,6-dihydro-4H-[1,3]oxazin-4-yl)-4-fluoro-phenyl]-amide]	0.052 µM	–	–	–	0.087 µM
C[C@@](O)(C(=O)Nc1ccc(F)c([C@@]2(C)N=C(N)OCC2(F)F)c1)C(F)(F)F [Example 76, (R)—N-[3-((R)-2-Amino-5,5-difluoro-4-methyl-5,6-dihydro-4H-[1,3]oxazin-4-yl)-4-fluoro-phenyl]-3,3,3-trifluoro-2-hydroxy-2-methyl-propionamide 2,2,2-trifluoroacetate]	1.42 µM	–	–	–	1.05 µM
C[C@]1(c2cc(NC(=O)c3cnc(C(F)(F)F)cn3)ccc2F)N=C(N)OCC1(F)F [Example 17, 5-Trifluoromethyl-pyrazine-2-carboxylic acid [3-((R)-2-amino-5,5-difluoro-4-methyl-5,6-dihydro-4H-[1,3]oxazin-4-yl)-4-fluoro-phenyl]-amide]	1.22 µM	–	–	–	0.086 µM

Reference: patent US8389513B2, “2-amino-5,5-difluoro-5,6-dihydro-4H-[1,3]oxazin-4-yl)-phenyl]-amides” (Hoffmann-La Roche Inc., priority 2009, dated 2013)
